What was measured:
Format in all cases: physicochemical
[1] = Product solution of CD-3 free base sodium salt after solvent exchange, observed at ambient temperature; details: Example 53, nominally 23% in water after distilling 2-propanol, contains DEHA
Method: A 425 gram autoclave solution containing 23.2% CD-3 free base, 2.5% DEHA in 268 g of 2-propanol, and 47 g of water was added to a two-liter flask equipped with an overhead agitator, temperature probe, addition funnel, condenser with take-off provision, and nitrogen blanketing. Water (275 g) and 30 g of 50% aqueous sodium hydroxide were added to the flask. The mixture was distilled at a vapor temperature of approximately 85° C.

[2] = Saturation solubility of CD-3 free base in solvents and solvent/water mixtures; details: 3% DEHA, ambient temperature
Method: The solubility of the free base form of color developers CD-3 in a number of potential solvents was determined. Representative solvents were selected from each of the different classes of solvents: alcohols, glycols and glycol ethers. A small quantity of a representative preservative, 3% of N,N-diethylhydroxylamine (DEHA), was added. Excess dry color developer free base (CD-3) was added to each solvent and saturation was achieved by mixing for several hours at room temperature. […] In Table I, Solvent:Water refers to the weight:weight, solvent:water ratio when water was included, CD Free Base Concentration refers to the weight percent saturation concentration of CD-3, and PEG 200 and PEG 300 refers to poly(ethylene glycol) having an average molecular weight of 200 or 300.

[3] = Saturation solubility of CD-3 free base in solvent/water/sodium hydroxide systems; details: 3 weight percent DEHA, ambient temperature, HPLC
Method: Because CD-3 free base can be converted to its metal salt by treatment with a sufficiently strong base such as an alkali metal or alkaline earth metal hydroxide, carbonate, alkoxide or hydride, the solubility of CD-3 free base in solvent systems in combination with water and base was measured to determine if enhanced solubility could be obtained. The saturation concentration in weight percent again was determined by the techniques of both HPLC and NMR. Selected solvents were combined with water and an alkali metal hydroxide (sodium hydroxide), with each sample containing a small quantity (3 weight percent) of a representative preservative (DEHA). Excess, dry CD-3 free base was added to each combination solvent system and saturation was achieved by mixing for several hours at ambient temperature.

**Q.** With `CCN(CC[N-]S(C)(=O)=O)c1ccc(N)c(C)c1.[Na+]` [CD-3 free base sodium salt] as the compound, how does the “Solution behaviour of final product solution” value [1] read?
**A.** The value was “remained in solution”.

**Q.** For `CCN(CCNS(C)(=O)=O)c1ccc(N)c(C)c1` [CD-3 free base, 4-amino-3-methyl-N-ethyl-N-(2-methanesulfonamidoethyl)aniline], which “CD Free Base Conc. (saturation concentration)” value ([2]; Example 1, 2-Isopropoxyethanol) is on record?
**A.** The value was 8.6 weight percent.

**Q.** And the “CD Free Base Conc. (saturation concentration)” value ([2]; Example 2, 2-Methyl-1,3-Propanediol)?
**A.** Its value is 3.3 weight percent.

**Q.** What about the “CD Free Base Conc. (saturation concentration)” value ([2]; Example 3, 3-Methoxy-1-Butanol) of the same compound?
**A.** Its value is 9.3 weight percent.

**Q.** What about the “CD Free Base Conc. (saturation concentration)” value ([2]; Example 4, PEG-200) of the same compound?
**A.** The value was 16.9 weight percent.

**Q.** What about the “CD Free Base Conc. (saturation concentration)” value ([2]; Example 5, PEG-300) of the same compound?
**A.** The value was 16.7 weight percent.

**Q.** And the “CD Free Base Conc. (saturation concentration)” value ([2]; Example 6, Diethylene Glycol)?
**A.** Its value is 15.2 weight percent.

**Q.** And the “CD Free Base Conc. (saturation concentration)” value ([2]; Example 7, Methanol)?
**A.** The value was 23.6 weight percent.

**Q.** What about the “CD Free Base Conc. (saturation concentration)” value ([2]; Example 8, Methanol/Water 90:10 w:w) of the same compound?
**A.** Its value is 18.9 weight percent.

**Q.** And the “CD Free Base Conc. (saturation concentration)” value ([2]; Example 9, Methanol/Water 50:50 w:w)?
**A.** Its value is 6.8 weight percent.

**Q.** What about the “CD Free Base Conc. (saturation concentration)” value ([2]; Example 10, Methanol/Water 10:90 w:w) of the same compound?
**A.** Its value is 0.7 weight percent.

**Q.** What about the “CD Free Base Conc. (saturation concentration)” value ([2]; Example 11, Ethanol) of the same compound?
**A.** Its value is 5.4 weight percent.

**Q.** And the “CD Free Base Conc. (saturation concentration)” value ([2]; Example 12, Ethanol/Water 90:10 w:w)?
**A.** The value was 9.7 weight percent.

**Q.** What about the “CD Free Base Conc. (saturation concentration)” value ([2]; Example 13, Ethanol/Water 50:50 w:w) of the same compound?
**A.** Its value is 9.0 weight percent.

**Q.** And the “CD Free Base Conc. (saturation concentration)” value ([2]; Example 14, Ethanol/Water 10:90 w:w)?
**A.** Its value is 0.6 weight percent.

**Q.** What about the “CD Free Base Conc. (saturation concentration)” value ([2]; Example 15, 2-Propanol) of the same compound?
**A.** Its value is 1.8 weight percent.

**Q.** And the “CD Free Base Conc. (saturation concentration)” value ([2]; Example 16, 2-Propanol/Water 90:10 w:w)?
**A.** Its value is 7.8 weight percent.

**Q.** And the “CD Free Base Conc. (saturation concentration)” value ([2]; Example 17, 2-Propanol/Water 50:50 w:w)?
**A.** Its value is 9.2 weight percent.

**Q.** And the “CD Free Base Conc. (saturation concentration)” value ([2]; Example 18, 2-Propanol/Water 10:90 w:w)?
**A.** The value was 0.8 weight percent.

**Q.** And the “CD Free Base Conc. (saturation concentration)” value ([3]; Example 19, 2-Isopropoxyethanol/Water/NaOH 63:34:3 w)?
**A.** The value was 22.9 weight percent.

**Q.** What about the “CD Free Base Conc. (saturation concentration)” value ([3]; Example 20, 2-Methyl-1,3-Propanediol/Water/NaOH 63:34:3 w) of the same compound?
**A.** The value was 19.0 weight percent.

**Q.** And the “CD Free Base Conc. (saturation concentration)” value ([3]; Example 21, 3-Methoxy-1-Butanol/Water/NaOH 63:34:3 w)?
**A.** The value was 21.3 weight percent.

**Q.** And the “CD Free Base Conc. (saturation concentration)” value ([3]; Example 22, PEG-200/Water/NaOH 63:34:3 w)?
**A.** The value was 19.5 weight percent.

**Q.** And the “CD Free Base Conc. (saturation concentration)” value ([3]; Example 23, PEG-300/Water/NaOH 63:34:3 w)?
**A.** Its value is 19.2 weight percent.

**Q.** What about the “CD Free Base Conc. (saturation concentration)” value ([3]; Example 24, Diethylene Glycol/Water/NaOH 63:34:3 w) of the same compound?
**A.** The value was 15.1 weight percent.

**Q.** What about the “CD Free Base Conc. (saturation concentration)” value ([3]; Example 26, 2-Methyl-1,3-Propanediol/Water/NaOH 61:33:6 w) of the same compound?
**A.** Its value is 23.2 weight percent.

**Q.** What about the “CD Free Base Conc. (saturation concentration)” value ([3]; Example 27, 3-Methoxy-1-Butanol/Water/NaOH 61:33:6 w) of the same compound?
**A.** The value was 26.4 weight percent.

**Q.** What about the “CD Free Base Conc. (saturation concentration)” value ([3]; Example 28, PEG-200/Water/NaOH 61:33:6 w) of the same compound?
**A.** The value was 23.5 weight percent.

**Q.** What about the “CD Free Base Conc. (saturation concentration)” value ([3]; Example 29, PEG-300/Water/NaOH 61:33:6 w) of the same compound?
**A.** The value was 20.8 weight percent.

**Q.** What about the “CD Free Base Conc. (saturation concentration)” value ([3]; Example 30, Diethylene Glycol/Water/NaOH 61:33:6 w) of the same compound?
**A.** Its value is 21.9 weight percent.

**Q.** And the “CD Free Base Conc. (saturation concentration)” value ([3]; Example 31, Water/NaOH 93.5:6.5 w)?
**A.** Its value is 25.1 weight percent.

**Q.** What about the “CD Free Base Conc. (saturation concentration)” value ([3]; Example printed 24 (second), 2-Isopropoxyethanol/Water/NaOH 61:33:6 w) of the same compound?
**A.** The value was 21.9 weight percent.
